Measurements taken from ChEMBL document CHEMBL3132769, “Fragment growing to retain or alter the selectivity of anchored kinase hinge-binding fragments” (Medchemcomm, 2014).

Legend:
[1] = biological target: Calcium/calmodulin-dependent protein kinase type II subunit delta (Homo sapiens) (UniProt Q13557); test: Inhibition of human full length CAMK2D expressed in baculovirus assessed as substrate phosphorylation using fluorescence-labelled peptides as substrate at 0.06 uM after 90 mins by microfluidic peptide phosphorylation assay
[2] = biological target: Tyrosine-protein kinase BTK (Homo sapiens) (UniProt Q06187); test: Inhibition of human full length BTK expressed in baculovirus assessed as substrate phosphorylation using fluorescence-labelled peptides as substrate at 0.06 uM after 90 mins by microfluidic peptide phosphorylation assay
[3] = biological target: T1, cGMP-dependent protein kinase 1 (Homo sapiens) (UniProt Q13976); conditions: 0.1 uM
T1 sequence (whole entry): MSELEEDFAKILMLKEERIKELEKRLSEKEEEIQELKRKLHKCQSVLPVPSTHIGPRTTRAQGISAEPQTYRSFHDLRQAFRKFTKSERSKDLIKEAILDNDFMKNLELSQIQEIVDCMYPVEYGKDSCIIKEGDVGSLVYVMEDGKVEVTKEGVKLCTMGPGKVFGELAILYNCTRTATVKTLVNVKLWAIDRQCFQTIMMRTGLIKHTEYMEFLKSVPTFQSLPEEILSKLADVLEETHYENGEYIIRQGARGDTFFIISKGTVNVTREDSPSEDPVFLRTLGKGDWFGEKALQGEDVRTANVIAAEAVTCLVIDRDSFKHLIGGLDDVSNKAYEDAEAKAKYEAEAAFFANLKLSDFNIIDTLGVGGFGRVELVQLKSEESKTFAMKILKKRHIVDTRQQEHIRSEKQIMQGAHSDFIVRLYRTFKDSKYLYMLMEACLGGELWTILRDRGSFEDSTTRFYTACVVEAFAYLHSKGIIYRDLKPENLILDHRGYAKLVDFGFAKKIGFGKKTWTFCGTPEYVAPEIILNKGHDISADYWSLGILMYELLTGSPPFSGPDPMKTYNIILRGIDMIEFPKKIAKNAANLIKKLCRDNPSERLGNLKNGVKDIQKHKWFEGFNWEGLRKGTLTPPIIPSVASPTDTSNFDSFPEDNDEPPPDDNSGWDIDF
Description: Inhibition of human full length PKG-1beta expressed in baculovirus assessed as substrate phosphorylation using fluorescence-labelled peptides as substrate at 0.1 uM after 90 mins by microfluidic peptide phosphorylation assay

[4] = biological target: Tyrosine-protein kinase ABL1 (Homo sapiens) (UniProt P00519); conditions: 0.1 uM
Description: Inhibition of human full-length ABL expressed in baculovirus assessed as substrate phosphorylation using fluorescence-labelled peptides as substrate at 0.1 uM after 90 mins by microfluidic peptide phosphorylation assay

[5] = biological target: Casein kinase I isoform alpha (Homo sapiens) (UniProt P48729); test: Inhibition of human full length CSNK1A1 expressed in baculovirus assessed as substrate phosphorylation using fluorescence-labelled peptides as substrate at […] after 90 mins by microfluidic peptide phosphorylation assay
[6] = biological target: Hepatocyte growth factor receptor (Homo sapiens) (UniProt P08581); test: Inhibition of human MET cytoplasmic domain expressed in baculovirus assessed as substrate phosphorylation using fluorescence-labelled peptides as substrate at 420 uM after 90 mins by microfluidic peptide phosphorylation assay
[7] = biological target: RAF proto-oncogene serine/threonine-protein kinase (Homo sapiens) (UniProt P04049); test: Inhibition of human truncated c-Raf expressed in baculovirus assessed as substrate phosphorylation using fluorescence-labelled peptides as substrate at 0.2 uM after 90 mins by microfluidic peptide phosphorylation assay
[8] = biological target: Insulin-like growth factor 1 receptor (Homo sapiens) (UniProt P08069); test: Inhibition of human IGF1R catalytic domain expressed in baculovirus assessed as substrate phosphorylation using fluorescence-labelled peptides as substrate at 0.2 uM after 90 mins by microfluidic peptide phosphorylation assay
[9] = biological target: Cyclin-dependent kinase 2 (Homo sapiens) (UniProt P24941); test: Inhibition of human full length CDK2 expressed in baculovirus assessed as substrate phosphorylation using fluorescence-labelled peptides as substrate at 2 uM after 90 mins by microfluidic peptide phosphorylation assay
[10] = biological target: MAP kinase p38 (Homo sapiens) (UniProt O15264+Q15759+Q16539+P53778); test: Inhibition of human full length p38 beta2 expressed in Escherichia coli cell assessed as substrate phosphorylation using fluorescence-labelled peptides as substrate at 2 uM after 90 mins by microfluidic peptide phosphorylation assay
[11] = biological target: T2, Mitogen-activated protein kinase 13 (Homo sapiens) (UniProt O15264); test: Inhibition of human full length p38 delta expressed in Escherichia coli cell assessed as substrate phosphorylation using fluorescence-labelled peptides as substrate at 8 uM after 90 mins by microfluidic peptide phosphorylation assay
T2 sequence (whole entry): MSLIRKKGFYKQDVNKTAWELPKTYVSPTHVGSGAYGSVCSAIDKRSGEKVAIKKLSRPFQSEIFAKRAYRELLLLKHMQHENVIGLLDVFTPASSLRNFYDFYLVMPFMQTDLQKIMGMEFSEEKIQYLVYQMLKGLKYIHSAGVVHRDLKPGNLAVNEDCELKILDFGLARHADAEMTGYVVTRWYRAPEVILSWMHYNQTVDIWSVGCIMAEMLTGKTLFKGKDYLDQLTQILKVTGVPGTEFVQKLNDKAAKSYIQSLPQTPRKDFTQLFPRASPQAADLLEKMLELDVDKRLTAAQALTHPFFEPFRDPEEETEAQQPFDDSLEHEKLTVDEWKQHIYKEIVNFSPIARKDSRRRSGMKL

[12] = biological target: T3, Serine/threonine-protein kinase Nek2 (Homo sapiens) (UniProt P51955); test: Inhibition of human full length NEK2 expressed in baculovirus assessed as substrate phosphorylation using fluorescence-labelled peptides as substrate at 8 uM after 90 mins by microfluidic peptide phosphorylation assay
T3 sequence (whole entry): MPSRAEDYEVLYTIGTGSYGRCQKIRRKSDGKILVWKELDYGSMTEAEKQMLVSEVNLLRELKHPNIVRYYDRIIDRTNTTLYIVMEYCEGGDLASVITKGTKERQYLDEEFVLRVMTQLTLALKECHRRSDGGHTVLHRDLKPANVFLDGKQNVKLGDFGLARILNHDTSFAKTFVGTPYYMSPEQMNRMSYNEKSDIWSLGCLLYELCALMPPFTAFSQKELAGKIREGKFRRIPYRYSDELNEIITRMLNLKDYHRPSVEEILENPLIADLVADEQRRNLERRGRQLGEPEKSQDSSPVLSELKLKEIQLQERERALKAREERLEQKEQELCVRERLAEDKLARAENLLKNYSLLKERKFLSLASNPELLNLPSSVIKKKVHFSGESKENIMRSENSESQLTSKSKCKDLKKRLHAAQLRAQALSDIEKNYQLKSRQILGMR

[13] = biological target: Platelet-derived growth factor receptor alpha (Homo sapiens) (UniProt P16234); test: Inhibition of human PDGFR alpha catalytic domain expressed in baculovirus assessed as substrate phosphorylation using fluorescence-labelled peptides as substrate at 1000 uM after 90 mins by microfluidic peptide phosphorylation assay
[14] = biological target: Casein kinase I isoform delta (Homo sapiens) (UniProt P48730); test: Inhibition of human CK1D catalytic domain expressed in Escherichia coli cell assessed as substrate phosphorylation using fluorescence-labelled peptides as substrate at 1000 uM after 90 mins by microfluidic peptide phosphorylation assay

Sequence of Tyrosine-protein kinase ABL1 (Homo sapiens) (P00519 whole entry, canonical isoform): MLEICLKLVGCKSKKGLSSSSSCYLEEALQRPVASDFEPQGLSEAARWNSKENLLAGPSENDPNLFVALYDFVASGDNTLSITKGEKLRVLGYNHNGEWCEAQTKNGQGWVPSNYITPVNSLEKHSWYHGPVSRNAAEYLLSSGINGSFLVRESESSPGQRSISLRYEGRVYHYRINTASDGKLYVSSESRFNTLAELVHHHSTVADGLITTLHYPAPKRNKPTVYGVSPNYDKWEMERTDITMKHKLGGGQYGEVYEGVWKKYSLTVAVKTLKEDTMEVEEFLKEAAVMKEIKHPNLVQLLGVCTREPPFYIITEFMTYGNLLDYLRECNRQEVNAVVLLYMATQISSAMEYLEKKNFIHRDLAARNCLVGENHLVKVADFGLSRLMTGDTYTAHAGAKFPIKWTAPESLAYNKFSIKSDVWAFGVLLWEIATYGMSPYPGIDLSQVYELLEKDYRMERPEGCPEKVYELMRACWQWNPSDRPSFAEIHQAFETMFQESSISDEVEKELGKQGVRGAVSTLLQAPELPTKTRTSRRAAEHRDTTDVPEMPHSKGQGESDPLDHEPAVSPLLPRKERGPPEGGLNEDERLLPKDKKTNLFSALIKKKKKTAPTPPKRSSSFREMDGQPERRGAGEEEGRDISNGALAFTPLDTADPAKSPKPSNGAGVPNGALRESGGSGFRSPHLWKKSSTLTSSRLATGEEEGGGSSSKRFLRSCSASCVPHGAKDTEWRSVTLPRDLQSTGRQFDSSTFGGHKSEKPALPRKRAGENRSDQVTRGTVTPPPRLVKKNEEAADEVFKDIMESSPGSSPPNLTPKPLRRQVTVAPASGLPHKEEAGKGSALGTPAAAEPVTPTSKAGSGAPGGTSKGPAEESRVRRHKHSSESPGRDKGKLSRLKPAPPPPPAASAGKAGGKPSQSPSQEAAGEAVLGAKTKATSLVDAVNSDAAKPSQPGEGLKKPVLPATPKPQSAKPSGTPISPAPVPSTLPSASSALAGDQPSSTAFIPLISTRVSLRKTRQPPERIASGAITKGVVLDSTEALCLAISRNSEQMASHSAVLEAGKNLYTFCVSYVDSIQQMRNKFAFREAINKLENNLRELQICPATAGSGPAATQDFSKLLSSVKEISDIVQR
Sequence of Hepatocyte growth factor receptor (Homo sapiens) (P08581 whole entry, the tested form may be a part): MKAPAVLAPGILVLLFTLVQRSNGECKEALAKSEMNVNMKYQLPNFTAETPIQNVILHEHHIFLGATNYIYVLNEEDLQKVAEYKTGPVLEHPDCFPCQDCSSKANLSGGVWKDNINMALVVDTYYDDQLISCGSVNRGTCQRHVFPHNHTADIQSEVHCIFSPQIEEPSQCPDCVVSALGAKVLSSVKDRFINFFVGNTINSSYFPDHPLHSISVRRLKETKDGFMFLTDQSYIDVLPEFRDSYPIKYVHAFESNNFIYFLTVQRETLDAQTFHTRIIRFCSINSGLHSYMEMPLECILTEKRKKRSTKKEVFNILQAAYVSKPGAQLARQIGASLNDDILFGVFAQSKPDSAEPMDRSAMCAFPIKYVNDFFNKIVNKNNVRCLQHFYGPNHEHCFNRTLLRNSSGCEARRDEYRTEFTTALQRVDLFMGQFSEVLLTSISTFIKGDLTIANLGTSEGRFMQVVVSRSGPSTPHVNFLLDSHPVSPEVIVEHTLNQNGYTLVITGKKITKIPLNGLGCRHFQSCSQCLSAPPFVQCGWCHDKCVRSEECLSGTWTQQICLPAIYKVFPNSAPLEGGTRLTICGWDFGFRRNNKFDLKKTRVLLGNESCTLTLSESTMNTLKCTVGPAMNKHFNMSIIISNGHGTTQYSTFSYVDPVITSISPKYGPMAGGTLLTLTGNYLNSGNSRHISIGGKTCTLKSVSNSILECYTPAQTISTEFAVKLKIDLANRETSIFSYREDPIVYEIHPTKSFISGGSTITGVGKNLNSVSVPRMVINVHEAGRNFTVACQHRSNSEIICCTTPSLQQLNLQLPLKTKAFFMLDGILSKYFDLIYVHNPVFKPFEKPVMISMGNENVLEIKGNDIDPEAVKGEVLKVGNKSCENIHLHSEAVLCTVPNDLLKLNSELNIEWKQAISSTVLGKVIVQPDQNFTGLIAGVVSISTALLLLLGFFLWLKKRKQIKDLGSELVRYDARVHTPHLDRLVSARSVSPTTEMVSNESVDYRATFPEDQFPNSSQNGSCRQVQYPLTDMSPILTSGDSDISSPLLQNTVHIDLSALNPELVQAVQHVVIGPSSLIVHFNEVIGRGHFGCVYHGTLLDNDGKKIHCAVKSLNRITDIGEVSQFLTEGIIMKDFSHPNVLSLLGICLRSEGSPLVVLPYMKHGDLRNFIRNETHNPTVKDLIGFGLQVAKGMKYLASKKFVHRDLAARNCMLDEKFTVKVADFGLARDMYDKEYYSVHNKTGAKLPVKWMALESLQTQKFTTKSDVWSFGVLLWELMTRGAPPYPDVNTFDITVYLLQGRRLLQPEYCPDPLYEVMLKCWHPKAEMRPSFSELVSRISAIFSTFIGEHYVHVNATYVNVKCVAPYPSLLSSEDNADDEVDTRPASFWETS
Sequence of Casein kinase I isoform alpha (Homo sapiens) (P48729 2-337 limits assumed): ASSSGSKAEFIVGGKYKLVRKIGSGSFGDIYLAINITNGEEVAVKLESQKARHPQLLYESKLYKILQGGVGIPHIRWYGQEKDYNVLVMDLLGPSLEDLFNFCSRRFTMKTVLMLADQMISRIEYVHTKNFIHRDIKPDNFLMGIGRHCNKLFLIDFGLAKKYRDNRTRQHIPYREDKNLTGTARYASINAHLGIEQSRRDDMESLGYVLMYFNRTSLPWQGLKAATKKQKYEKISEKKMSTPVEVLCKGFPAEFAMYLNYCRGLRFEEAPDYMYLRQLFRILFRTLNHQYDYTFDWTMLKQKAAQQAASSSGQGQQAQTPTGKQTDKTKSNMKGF
Sequence of MAP kinase p38 (Homo sapiens) (P53778 whole entry, looked up, one chain of several): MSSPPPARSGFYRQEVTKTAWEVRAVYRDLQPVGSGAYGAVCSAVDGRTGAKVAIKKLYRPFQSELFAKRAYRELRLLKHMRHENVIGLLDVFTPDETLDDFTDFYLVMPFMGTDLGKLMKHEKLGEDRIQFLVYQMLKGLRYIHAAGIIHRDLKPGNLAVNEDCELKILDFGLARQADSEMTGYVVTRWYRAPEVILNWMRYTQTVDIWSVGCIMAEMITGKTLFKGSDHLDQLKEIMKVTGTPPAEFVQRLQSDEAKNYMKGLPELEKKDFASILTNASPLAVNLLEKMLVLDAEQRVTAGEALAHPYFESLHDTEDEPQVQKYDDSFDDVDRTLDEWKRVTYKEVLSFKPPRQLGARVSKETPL
Sequence of MAP kinase p38 (Homo sapiens) (Q15759 whole entry, looked up, one chain of several): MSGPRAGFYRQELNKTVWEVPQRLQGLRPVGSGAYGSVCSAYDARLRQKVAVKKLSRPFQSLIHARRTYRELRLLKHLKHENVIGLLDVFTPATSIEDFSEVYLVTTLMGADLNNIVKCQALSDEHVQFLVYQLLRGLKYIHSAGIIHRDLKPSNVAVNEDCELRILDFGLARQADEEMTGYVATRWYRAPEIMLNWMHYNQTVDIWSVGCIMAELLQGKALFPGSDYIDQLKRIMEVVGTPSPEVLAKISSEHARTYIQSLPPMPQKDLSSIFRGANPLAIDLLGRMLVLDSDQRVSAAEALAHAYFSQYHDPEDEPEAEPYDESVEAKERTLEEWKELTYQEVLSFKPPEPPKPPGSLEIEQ
Sequence of MAP kinase p38 (Homo sapiens) (Q16539 whole entry, looked up, one chain of several): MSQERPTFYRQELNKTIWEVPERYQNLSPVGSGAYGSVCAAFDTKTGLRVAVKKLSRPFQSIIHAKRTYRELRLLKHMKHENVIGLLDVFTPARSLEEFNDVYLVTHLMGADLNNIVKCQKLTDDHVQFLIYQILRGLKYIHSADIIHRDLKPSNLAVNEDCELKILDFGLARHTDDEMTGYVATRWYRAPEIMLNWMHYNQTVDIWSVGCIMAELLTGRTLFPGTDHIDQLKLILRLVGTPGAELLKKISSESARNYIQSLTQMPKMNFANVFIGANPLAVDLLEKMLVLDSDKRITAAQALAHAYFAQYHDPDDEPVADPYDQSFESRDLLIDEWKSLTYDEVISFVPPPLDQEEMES
Sequence of Platelet-derived growth factor receptor alpha (Homo sapiens) (P16234 whole entry, the tested form may be a part, canonical isoform): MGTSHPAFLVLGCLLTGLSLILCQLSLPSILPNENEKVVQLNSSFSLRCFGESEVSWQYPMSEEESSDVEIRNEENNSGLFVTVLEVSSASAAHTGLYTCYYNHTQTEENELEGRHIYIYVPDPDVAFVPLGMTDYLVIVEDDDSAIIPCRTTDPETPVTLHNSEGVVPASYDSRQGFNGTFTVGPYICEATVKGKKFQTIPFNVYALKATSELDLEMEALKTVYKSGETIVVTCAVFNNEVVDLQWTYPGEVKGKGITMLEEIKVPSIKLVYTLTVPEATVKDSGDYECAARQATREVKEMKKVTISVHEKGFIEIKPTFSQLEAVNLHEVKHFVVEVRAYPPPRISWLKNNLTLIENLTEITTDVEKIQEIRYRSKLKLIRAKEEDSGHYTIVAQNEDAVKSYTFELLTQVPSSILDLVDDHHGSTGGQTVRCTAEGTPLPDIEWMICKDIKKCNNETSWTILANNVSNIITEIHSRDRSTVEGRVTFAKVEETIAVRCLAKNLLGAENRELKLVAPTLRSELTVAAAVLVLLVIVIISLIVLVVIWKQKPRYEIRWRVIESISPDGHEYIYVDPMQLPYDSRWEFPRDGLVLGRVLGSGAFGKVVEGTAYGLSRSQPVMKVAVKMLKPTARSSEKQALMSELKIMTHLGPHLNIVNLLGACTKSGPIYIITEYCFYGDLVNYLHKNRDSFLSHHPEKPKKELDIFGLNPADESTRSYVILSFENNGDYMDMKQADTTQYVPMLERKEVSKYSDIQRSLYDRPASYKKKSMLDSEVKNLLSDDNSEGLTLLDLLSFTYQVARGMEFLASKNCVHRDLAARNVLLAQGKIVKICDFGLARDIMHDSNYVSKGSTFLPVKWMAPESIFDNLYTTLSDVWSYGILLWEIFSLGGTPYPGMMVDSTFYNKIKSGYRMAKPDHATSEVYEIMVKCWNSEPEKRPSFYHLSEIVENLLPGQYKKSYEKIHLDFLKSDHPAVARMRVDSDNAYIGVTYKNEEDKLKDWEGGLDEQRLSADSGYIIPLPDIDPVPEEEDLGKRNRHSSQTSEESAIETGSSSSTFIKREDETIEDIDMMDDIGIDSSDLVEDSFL

For NC1(Cc2ccc(Cl)cc2)CCN(c2ncnc3[nH]ccc23)CC1, the inhibition [1] was 0% and the inhibition [2] was 0%.

For C[C@H](CN(C)C)Oc1nc(Nc2cc3cccc(Cl)c3cn2)cnc1C#N, the inhibition [3] was 0% and the inhibition [4] was 0%.

For COC(=O)c1cnc(Nc2cnc(C#N)cn2)cc1NCC1CCNCC1, the inhibition [5] was 2%.

With c1nc(N2CCOCC2)c2nc[nH]c2n1 the inhibition [6] was 23%.

In the case of Clc1ccc(C2(c3ccc(-c4ncnc5[nH]cnc45)cc3)CCNCC2)cc1, the inhibition [7] is reported as 3.5% and the inhibition [8] is reported as 5%.

NC1CCN(c2ncnc3[nH]ccc23)CC1 was tested, and the inhibition [9] was 0% and the inhibition [10] was 5.5%.

For NCC1CCN(c2ncnc3[nH]ccc23)CC1, the inhibition [11] was 5.5% and the inhibition [12] was 0%.

Work on c1cnc2[nH]ccc2c1 yielded an inhibition [13] of 31.5% and an inhibition [14] of 94.5%.
